The results in this text go back to patent publication US3984481A, “Bis-2-substituted-thiovinyl sulfones” (Chevron Research Company, priority 1976, dated 1976).

Where two headings read alike, the source gives them in different places. Where only a bound is given, the exact number is not on record here.

One assay deals with Pythium ultimum. The assay can be described thus: Mycelial inhibition test.
For a further assay, the system named is Fusarium moniloforma. The assay can be described thus: Mycelial inhibition test.
The subject of the next assay is Rhizoctonia solani. Briefly: Mycelial inhibition test.
Another assay has as its system Lemna. The assay can be described thus: Algae control (aquatic weed control) test. As to conditions: read-out: Percent Aquatic Weed Control. It is filed as in vivo. On the procedure: (§1) Representative compounds of the invention were tested as algicides by the following method. The algae test species were Lemna, Elodea and Spirolina. An acetone solution of the test compound and a small amount of an alkylarylpolyoxyethylene glycol-containing surfactant was prepared. This solution was mixed with a nutrient broth in a quantity sufficient to give a concentration of 2 ppm. A 240 ml container was filled with this mixture. A sample of the test algae was added to each container and the container was then placed in an illuminated environment and maintained at a temperature of about 20°C for incubation. The containers were observed periodically for algae growth (as compared to an untreated check). The algicidal effectiveness of the test compound was determined based on a final observation of algae growth after 7 to 10 days. The results of the test on a 0 to 100 basis -- 0 indicating no effectiveness and 100 indicating complete effectiveness -- are reported in Table III.

Another assay relates to Elodea. Briefly: Algae control (aquatic weed control) test. In kind it is in vivo. As to conditions: read-out: Percent Aquatic Weed Control. Here is the method: as §1
In the next assay the test system is Aspergillus niger. The assay can be described thus: Mycelial inhibition test.
A further assay deals with Botrytis cinerea. Briefly: Mycelial inhibition test.
The test system of a further assay is Spirolina. Briefly: Algae control (aquatic weed control) test. Conditions: read-out: Percent Aquatic Weed Control. In kind it is in vivo. Here is the method: as §1
[1] abbreviates: Pythium ultimum, 99% control, 25°C, 24 hours, 500 ppm acetone solution sprayed.
[2] abbreviates: Fusarium moniloforma, 99% control, 25°C, 24 hours, 500 ppm acetone solution sprayed.
The mark [3] stands for this setting: Rhizoctonia solani, 99% control, 25°C, 24 hours, 500 ppm acetone solution sprayed.
Where [4] appears, read: 2 ppm, 20°C, 7 to 10 days, 0 no effectiveness, 100 complete effectiveness.
Where [5] appears, read: Elodea, 2 ppm, 20°C, 7 to 10 days, 0 no effectiveness, 100 complete effectiveness.
Where [6] appears, read: Aspergillus niger, 99% control, 25°C, 24 hours, 500 ppm acetone solution sprayed.
Where [7] appears, read: Botrytis cinerea, 99% control, 25°C, 24 hours, 500 ppm acetone solution sprayed.
Setting [8] is: Spirolina, 2 ppm, 20°C, 7 to 10 days, 0 no effectiveness, 100 complete effectiveness.

In the case of `O=S(=O)(C=CSc1ccc(Cl)cc1)C=CSc1ccc(Cl)cc1` [Compound 1], the “Mycelia Inhibition, micrograms/cm^2 for 99% control” value with Pythium ultimum (setting [1]) is 0.22 micrograms/cm^2; with Fusarium moniloforma (setting [2]), over 1.7 micrograms/cm^2; in the assay with Rhizoctonia solani (setting [3]) it was 0.9 micrograms/cm^2; in the assay with Aspergillus niger (setting [6]) it was 0.86 micrograms/cm^2. The inhibition at 2 ppm is 68% in the assay with Lemna (setting [4]) and 97% with Elodea (setting [5]).

Turning to `O=S(=O)(C=CSc1cc(Cl)ccc1Cl)C=CSc1cc(Cl)ccc1Cl` [Compound 4], the “Mycelia Inhibition, micrograms/cm^2 for 99% control” value in the assay with Pythium ultimum (setting [1]) is over 1.7 micrograms/cm^2; in the assay with Botrytis cinerea (setting [7]) it was 0.70 micrograms/cm^2; in the assay with Fusarium moniloforma (setting [2]), over 1.7 micrograms/cm^2; in the assay with Rhizoctonia solani (setting [3]), 1.2 micrograms/cm^2; in the assay on Aspergillus niger (setting [6]) it was over 1.7 micrograms/cm^2. In addition, the inhibition at 2 ppm is 80% with Spirolina (setting [8]), 39% with Lemna (setting [4]) and 70% in the assay with Elodea (setting [5]).

For the compound `O=S(=O)(C=CSc1ccccc1)C=CSc1ccccc1` [Compound 8], the “Mycelia Inhibition, micrograms/cm^2 for 99% control” value in the assay on Pythium ultimum (setting [1]) is over 1.7 micrograms/cm^2; in the assay with Botrytis cinerea (setting [7]) it was 1.5 micrograms/cm^2; in the assay on Fusarium moniloforma (setting [2]), over 1.7 micrograms/cm^2; in the assay with Rhizoctonia solani (setting [3]), 0.88 micrograms/cm^2; with Aspergillus niger (setting [6]), 0.50 micrograms/cm^2. The inhibition at 2 ppm is 30% in the assay with Spirolina (setting [8]), 0% in the assay on Lemna (setting [4]) and 39% with Elodea (setting [5]).

For `O=S(=O)(C=CSc1ccc(Br)cc1)C=CSc1ccc(Br)cc1` [Compound 3, bis-2-(4-bromophenylthio)vinyl sulfone], the “Mycelia Inhibition, micrograms/cm^2 for 99% control” value was over 1.7 micrograms/cm^2 with Pythium ultimum (setting [1]); 1.4 micrograms/cm^2 in the assay with Botrytis cinerea (setting [7]); over 1.7 micrograms/cm^2 in the assay with Fusarium moniloforma (setting [2]); 1.4 micrograms/cm^2 in the assay on Rhizoctonia solani (setting [3]); 0.73 micrograms/cm^2 in the assay on Aspergillus niger (setting [6]). For the same compound, the figures for the inhibition at 2 ppm in the assay on Spirolina (setting [8]), in the assay with Lemna (setting [4]) and with Elodea (setting [5]) were 40%, 94% and 94%, respectively.

Consider `O=S(=O)(C=CSc1ccc(Cl)c(Cl)c1)C=CSc1ccc(Cl)c(Cl)c1` [Compound 7], for which the “Mycelia Inhibition, micrograms/cm^2 for 99% control” value worked out at 0.78 micrograms/cm^2 in the assay with Pythium ultimum (setting [1]); 0.70 micrograms/cm^2 in the assay with Botrytis cinerea (setting [7]); 1.0 micrograms/cm^2 in the assay with Fusarium moniloforma (setting [2]); 0.97 micrograms/cm^2 in the assay with Rhizoctonia solani (setting [3]); 1.1 micrograms/cm^2 in the assay on Aspergillus niger (setting [6]). The inhibition at 2 ppm in the assay on Spirolina (setting [8]) was 95%; in the assay with Lemna (setting [4]), 70%; in the assay on Elodea (setting [5]), 90%.

With `O=S(=O)(C=CSc1cccc(Cl)c1)C=CSc1cccc(Cl)c1` [Compound 2], the “Mycelia Inhibition, micrograms/cm^2 for 99% control” value in the assay with Pythium ultimum (setting [1]) is on record as over 1.7 micrograms/cm^2; in the assay with Botrytis cinerea (setting [7]), 1.2 micrograms/cm^2; in the assay on Fusarium moniloforma (setting [2]), over 1.7 micrograms/cm^2; with Rhizoctonia solani (setting [3]) it was 1.5 micrograms/cm^2; with Aspergillus niger (setting [6]), 1.1 micrograms/cm^2. Moreover, the inhibition at 2 ppm was 0% with Spirolina (setting [8]), 100% in the assay on Lemna (setting [4]) and 94% with Elodea (setting [5]).

On to `O=S(=O)(CCSc1ccc(Cl)cc1)CCSc1ccc(Cl)cc1` [Compound 10, bis-2-(4-chlorophenylthio)ethyl sulfone, reference compound], for which the “Mycelia Inhibition, micrograms/cm^2 for 99% control” value in the assay with Pythium ultimum (setting [1]), in the assay with Botrytis cinerea (setting [7]), in the assay on Fusarium moniloforma (setting [2]), with Rhizoctonia solani (setting [3]) and in the assay on Aspergillus niger (setting [6]) was over 1.7 micrograms/cm^2 each time. The inhibition at 2 ppm in the assay on Spirolina (setting [8]), in the assay on Lemna (setting [4]) and in the assay on Elodea (setting [5]) was 0% in each case.

Consider `O=[N+]([O-])c1ccc(SC=CS(=O)(=O)C=CSc2ccc([N+](=O)[O-])cc2)cc1` [Compound 6], for which the “Mycelia Inhibition, micrograms/cm^2 for 99% control” value is 0.73 micrograms/cm^2 with Pythium ultimum; 0.7 micrograms/cm^2 in the assay with Botrytis cinerea; over 1.7 micrograms/cm^2 in the assay on Fusarium moniloforma; 0.50 micrograms/cm^2 in the assay on Rhizoctonia solani; 0.34 micrograms/cm^2 with Aspergillus niger. Further, the inhibition at 2 ppm in the assay on Spirolina worked out at 90%; in the assay with Lemna it was 99%; in the assay on Elodea, 78%.

For the compound `O=S(=O)(C=CSc1ccc(F)cc1)C=CSc1ccc(F)cc1` [Compound 5], the “Mycelia Inhibition, micrograms/cm^2 for 99% control” value with Pythium ultimum (setting [1]), in the assay on Botrytis cinerea (setting [7]), in the assay with Fusarium moniloforma (setting [2]), in the assay with Rhizoctonia solani (setting [3]) and in the assay on Aspergillus niger (setting [6]) was over 1.7 micrograms/cm^2 throughout. Also, the figures for the inhibition at 2 ppm in the assay with Spirolina (setting [8]), in the assay on Lemna (setting [4]) and with Elodea (setting [5]) were 80%, 30% and 70%, respectively.
